Data as given in patent publication US12479834B2, “Phenol compound or salt thereof” (TAIHO PHARMACEUTICAL CO., LTD., priority 2019, dated 2025).

What was measured:
G12C K-Ras4B (1-169) = target: T1, G12C K-Ras4B (1-169) (Homo sapiens, UniProt P01116, G12C); assay: Binding to KRAS G12C mutant, compound binding rate by LC-MS; conditions: final compound concentration 2 μM, 1 μM protein, 2 hours at 25° C.
T1 construct: G12C K-Ras4B (1-169) protein, which was a KRAS G12C mutant; His tag (N, cleaved yes); made in house; host or cells: E. coli BL21 (DE3)
Procedure, shortened: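 Covalent labelling at 2 μM final compound on a mix of 1 μM each wild-type and G12C K-Ras4B (1-169) (E. coli-expressed, tag removed) in 1×TBS, 0.1 mM TCEP, 2 h at 25° C., quenched with formic acid. Intact-protein ESI Q-TOF LC-MS; binding rate from adduct vs unbound protein signal, graded A–E in 20% bands.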

KRAS G12C mutant = target: T2, KRAS G12C mutant (Homo sapiens, UniProt P01116, G12C); assay: Inhibition of SOS1-mediated nucleotide (GDP-GTP) exchange reaction of KRAS G12C mutant, BODIPY FL GDP fluorescence; type: biochemical; conditions: preincubated 25° C. 4 hours with 25 nM KRAS G12C bound with BODIPY FL GDP; SOS1 100 nM, GppNHp 1 μM, 30 minutes
T2 construct: 50 μM G12C K-Ras4B (1-169) protein and 1 mM BODIPY® FL GDP; His tag (N, cleaved yes); made in house; host or cells: E. coli BL21 (DE3)
Procedure, shortened: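 KRAS G12C (1-169) loaded with BODIPY FL GDP (25 nM) was preincubated with compound (5% DMSO) for 4 h at 25 °C. Exchange then ran 30 min with SOS1 (564-1049, 100 nM) and 1 µM GppNHp. IC50 came from the 485/520 nm fluorescence change, normalized to DMSO and no-GppNHp controls.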

SMILES	binding rate for G12C K-Ras4B (1-169) (G12C K-Ras4B (1-169))	IC50 (KRAS G12C mutant) [nM]
C=CC(=O)N1CC(NC(=O)c2c(C(F)(F)F)nc(CNc3cc(C(C)(C)C)c(C)cc3O)n2C(C)C)C1 [Example 77, N-(1-Acryloylazetidin-3-yl)-2-(((5-(tert-butyl)-2-hydroxy-4-methylphenyl)amino)methyl)-1-isopropyl-4-(trifluoromethyl)-1H-imidazole-5-carboxamide]	D (20% or more and less than 40%)	240
C=CC(=O)N1CC(NC(=O)c2cnc(CNc3cc4c(cc3O)CCC4(C)C)n2C)C1 [Example 71, N-(1-Acryloylazetidin-3-yl)-2-(((6-hydroxy-3,3-dimethyl-2,3-dihydro-1H-inden-5-yl)amino)methyl)-1-methyl-1H-imidazole-5-carboxamide]	C (40% or more and less than 60%)	221
C=CC(=O)N1CC(N(C)C(=O)c2cc(CNc3cc(C(C)(C)C)c(Cl)cc3O)co2)C1 [Example 34, N-(1-Acryloylazetidin-3-yl)-4-(((5-(tert-butyl)-4-chloro-2-hydroxyphenyl)amino)methyl)-N-methylfuran-2-carboxamide]	A (80% or more)	80
C=CC(=O)N1CC(NC(=O)c2cc(CNc3cc(C(C)(C)C)c(Cl)cc3O)ccc2F)C1 [Example 23, N-(1-Acryloylazetidin-3-yl)-5-(((5-(tert-butyl)-4-chloro-2-hydroxyphenyl)amino)methyl)-2-fluorobenzamide]	C (40% or more and less than 60%)	1000
C=CC(=O)N1CC(NC(=O)c2cnc(CNc3cc(CCC)c(Cl)cc3O)n2C)C1 [Example 64, N-(1-Acryloylazetidin-3-yl)-2-(((4-chloro-2-hydroxy-5-propylphenyl)amino)methyl)-1-methyl-1H-imidazole-5-carboxamide]	D (20% or more and less than 40%)	366
C=CC(=O)N1CC(NC(=O)c2cccc(CNc3cc(C(C)(C)C)c(Cl)cc3O)c2)C1 [Example 2, N-(1-Acryloylazetidin-3-yl)-3-(((5-(tert-butyl)-4-chloro-2-hydroxyphenyl)amino)methyl)benzamide]	B (60% or more and less than 80%)	815
C=CC(=O)N1CC(NC(=O)c2ccc(CNc3ccc(Cl)c(C(C)(C)C)c3)o2)C1 [Reference Example2, N-(1-Acryloylazetidin-3-yl)-5-(((3-(tert-butyl)-4-chlorophenyl)amino)methyl)furan-2-carboxamide, reference compound]	E (less than 20%)	> 10000
C=CC(=O)N1CC(NC(=O)c2cnc(CNc3cc(C(C)(C)C)c(Cl)c(F)c3O)n2C)C1 [Example 73, N-(1-Acryloylazetidin-3-yl)-2-(((5-(tert-butyl)-4-chloro-3-fluoro-2-hydroxyphenyl)amino)methyl)-1-methyl-1H-imidazole-5-carboxamide]	B (60% or more and less than 80%)	69
C=CC(=O)N1CC(NC(=O)c2csc(CNc3cc(C(C)(C)C)c(Cl)cc3O)n2)C1 [Example 8, N-(1-Acryloylazetidin-3-yl)-2-(((5-(tert-butyl)-4-chloro-2-hydroxyphenyl)amino)methyl)thiazole-4-carboxamide]	A (80% or more)	58
C=CC(=O)N1CC(NC(=O)c2oc(CNc3cc(C(C)(C)C)c(Cl)cc3O)cc2C)C1 [Example 21, N-(1-Acryloylazetidin-3-yl)-5-(((5-(tert-butyl)-4-chloro-2-hydroxyphenyl)amino)methyl)-3-methylfuran-2-carboxamide]	B (60% or more and less than 80%)	808
C=CC(=O)N1CC(NC(=O)c2cnc(CNc3cc(S(F)(F)(F)(F)F)c(Cl)cc3O)n2C)C1 [Example 58, N-(1-Acryloylazetidin-3-yl)-2-(((4-chloro-2-hydroxy-5-(pentafluoro-λ6-sulfaneyl)phenyl)amino)methyl)-1-methyl-1H-imidazole-5-carboxamide]	D (20% or more and less than 40%)	995
C=CC(=O)N1CC(NC(=O)c2cnc(C(C)Nc3cc(C(C)(C)C)c(Cl)c(F)c3O)n2C)C1 (stereo not drawn) [Example 82, N-(1-Acryloylazetidin-3-yl)-2-(1-((5-(tert-butyl)-4-chloro-3-fluoro-2-hydroxyphenyl)amino)ethyl)-1-methyl-1H-imidazole-5-carboxamide]	B (60% or more and less than 80%)	1040
C=CC(=O)N1CC(N(C)C(=O)c2cccc(CNc3cc(C(C)(C)C)c(Cl)cc3O)n2)C1 [Example 30, N-(1-Acryloylazetidin-3-yl)-6-(((5-(tert-butyl)-4-chloro-2-hydroxyphenyl)amino)methyl)-N-methylpicolinamide]	E (less than 20%)	1690
C=CC(=O)N1CC(NC(=O)c2ccc(CNc3cc(C(C)(C)C)c(Cl)cc3O)cc2)C1 [Example 3, N-(1-Acryloylazetidin-3-yl)-4-(((5-(tert-butyl)-4-chloro-2-hydroxyphenyl)amino)methyl)benzamide]	B (60% or more and less than 80%)	753
C=CC(=O)N1CC(NC(=O)c2ccc(CNc3cc(C(C)C)c(Cl)cc3O)o2)C1 [Example 48, N-(1-Acryloylazetidin-3-yl)-5-(((4-chloro-2-hydroxy-5-isopropylphenyl)amino)methyl)furan-2-carboxamide]	D (20% or more and less than 40%)	3970
CN(C)C/C=C/C(=O)N1CC(NC(=O)c2cnc(CNc3cc(C(C)(C)C)c(Cl)cc3O)s2)C1 [Example 86, (E)-2-(((5-(tert-Butyl)-4-chloro-2-hydroxyphenyl)amino)methyl)-N-(1-(4-(dimethylamino)but-2-enoyl)azetidin-3-yl)thiazole-5-carboxamide]	B (60% or more and less than 80%)	701
C=CC(=O)N1CC(NC(=O)c2sc(CNc3cc(C(C)(C)C)c(Cl)cc3O)nc2C(F)(F)F)C1 [Example 24, N-(1-Acryloylazetidin-3-yl)-2-(((5-(tert-butyl)-4-chloro-2-hydroxyphenyl)amino)methyl)-4-(trifluoromethyl)thiazole-5-carboxamide]	C (40% or more and less than 60%)	780
C=CC(=O)N1CC(NC(=O)c2cnc(CNc3cc(C(F)(F)F)c(Cl)cc3O)n2C)C1 [Example 54, N-(1-Acryloylazetidin-3-yl)-2-(((4-chloro-2-hydroxy-5-(trifluoromethyl)phenyl)amino)methyl)-1-methyl-1H-imidazole-5-carboxamide]	C (40% or more and less than 60%)	420
C=CC(=O)N1CC(N(C)C(=O)c2coc(CNc3cc(C(C)(C)C)c(Cl)cc3O)c2)C1 [Example 33, N-(1-Acryloylazetidin-3-yl)-5-(((5-(tert-butyl)-4-chloro-2-hydroxyphenyl)amino)methyl)-N-methylfuran-3-carboxamide]	E (less than 20%)	1490
C=CC(=O)N1CC[C@@H](N(C)C(=O)c2ccc(CNc3cc(C(C)(C)C)c(Cl)cc3O)o2)C1 [Example 6, (R)—N-(1-Acryloylpyrrolidin-3-yl)-5-(((5-(tert-butyl)-4-chloro-2-hydroxyphenyl)amino)methyl)-N-methylfuran-2-carboxamide]	D (20% or more and less than 40%)	164
C=CC(=O)N1CC(NC(=O)c2ncc(CNc3cc(C(C)(C)C)c(Cl)cc3O)o2)C1 [Example 12, N-(1-Acryloylazetidin-3-yl)-5-(((5-(tert-butyl)-4-chloro-2-hydroxyphenyl)amino)methyl)oxazole-2-carboxamide]	C (40% or more and less than 60%)	954
C=CC(=O)N1CC(NC(=O)c2ccc(CNc3cc(C(C)(C)C)ccc3O)o2)C1 [Example 66, N-(1-Acryloylazetidin-3-yl)-5-(((5-(tert-butyl)-2-hydroxyphenyl)amino)methyl)furan-2-carboxamide]	E (less than 20%)	9800
C=CC(=O)N1CC(NC(=O)c2cnc(CNc3cc(C(C)(C)C)cc(C)c3O)n2C)C1 [Example 74, N-(1-Acryloylazetidin-3-yl)-2-(((5-(tert-butyl)-2-hydroxy-3-methylphenyl)amino)methyl)-1-methyl-1H-imidazole-5-carboxamide]	E (less than 20%)	701
C=CC(=O)N1CC(NC(=O)c2cnc(CNc3cc(C(C)(C)C)c(Cl)cc3O)s2)C1 [Example 9, N-(1-Acryloylazetidin-3-yl)-2-(((5-(tert-butyl)-4-chloro-2-hydroxyphenyl)amino)methyl)thiazole-5-carboxamide]	A (80% or more)	39
